From ChEMBL document CHEMBL5360641, “4'-Ethynyl-2'-deoxy-2'-β-fluoro-2-fluoroadenosine: A Highly Potent and Orally Available Clinical Candidate for the Treatment of HIV-1 Infection” (J Med Chem, 2023)

Columns and labels:
[1] = system: Human immunodeficiency virus 1; experiment: Antiviral activity against HIV1 IIIB infected in human C8166 cells assessed as inhibition of syncytia formation incubated for 3 to 7 days by syncytia assays; type: functional, organism-based; details: Human immunodeficiency virus 1, IIIB
[2] = Apparent […] clearance in Sprague-Dawley rat at 5 mg/kg, iv measured upto 24 hrs by LC-MS/MS analysis; type: ADME, organism-based; details: in vivo
[3] = AUC (0 to t) in male Sprague-Dawley rat at 10 mg/kg, IG measured at 24 hrs LC-MS/MS analysis; type: ADME, organism-based; parameters: dose 10 mg/kg, time 24 hrs, route ig; details: in vivo, po
[4] = AUC (0 to t) in female Sprague-Dawley rat at 100 mg/kg, IG measured at 24 hrs LC-MS/MS analysis; type: ADME, organism-based; parameters: time 24 hrs, dose 100 mg/kg, route ig; details: in vivo, po
[5] = Bioavailability in Sprague-Dawley rat at 10 mg/kg, IG measured upto 24 hrs by LC-MS/MS analysis; type: ADME, organism-based; details: in vivo, po
[6] = Drug uptake in Beagle dog PBMC cells assessed as ((2R,3R,4S,5R)-5-(6-amino-2-fluoro-9H-purin-9-yl)-2-ethynyl-4-fluoro-3-hydroxytetrahydrofuran-2-yl)methyl tetrahydrogen triphosphate formation at 6 to 12 mg/kg, po measured at 2 to 168 hrs by LC-MS/MS analysis; type: ADME, organism-based, Canis lupus familiaris; details: in vivo, dose lower 6 mg/kg, time lower 2 hrs, dose upper 12 mg/kg, time upper 168 hrs
[7] = Acute toxicity in Sprague-Dawley rat assessed as effect on liver damage at 500 to 2000 mg/kg, IG measured on day 15; type: organism-based; details: in vivo, po, 360 h, dose 500-2000 mg/kg, time 15 day
[8] = Half life in Sprague-Dawley rat at 2.5 mg/kg, IG measured upto 24 hrs by LC-MS/MS analysis; type: ADME, organism-based; details: in vivo, po
[9] = AUC (0 to t) in Sprague-Dawley rat at 5 mg/kg, IG measured upto 24 hrs by LC-MS/MS analysis; type: ADME, organism-based; parameters: time < 24 hrs, dose 5 mg/kg, route ig; details: in vivo, po
[10] = AUC (0 to t) in Sprague-Dawley rat at 5 mg/kg, iv measured upto 24 hrs by LC-MS/MS analysis; type: ADME, organism-based; parameters: dose 5 mg/kg, time < 24 hrs, route iv; details: in vivo
[11] = system: Human immunodeficiency virus 1; experiment: Antiviral activity against HIV1 WAN infected in human PBMC assessed as inhibition of viral replication by measuring reduction in p24 antigen level incubated for 3 to 7 days by ELISA analysis; type: functional, organism-based; details: Human immunodeficiency virus 1, WAN
[12] = Half life in Sprague-Dawley rat at 5 mg/kg, iv measured upto 24 hrs by LC-MS/MS analysis; type: ADME, organism-based; details: in vivo
[13] = AUC (0 to t) in female Sprague-Dawley rat at 100 mg/kg, IG measured at 0.5 hrs LC-MS/MS analysis; type: ADME, organism-based; parameters: time 0.5 hrs, dose 100 mg/kg, route ig; details: in vivo, po
[14] = Cmax in Sprague-Dawley rat at 5 mg/kg, iv measured upto 24 hrs by LC-MS/MS analysis; type: ADME, organism-based; parameters: time < 24 hrs, dose 5 mg/kg, route iv; details: in vivo
[15] = Acute toxicity in Sprague-Dawley rat assessed as effect on kidney damage at 500 to 2000 mg/kg, IG measured on day 15; type: organism-based; details: in vivo, po, 360 h, dose 500-2000 mg/kg, time 15 day
[16] = AUC (0 to t) in male Sprague-Dawley rat at 100 mg/kg, IG measured at 24 hrs LC-MS/MS analysis; type: ADME, organism-based; parameters: time 24 hrs, dose 100 mg/kg, route ig; details: in vivo, po
[17] = Toxicity in Sprague-Dawley rat assessed as effect on body weight at 10 to 30 mg/kg, po administered once daily for 4 weeks and measured after 24 hrs post last dose; type: organism-based; details: in vivo, 696 h, dose 10-30 mg/kg
[18] = system: Human immunodeficiency virus 1; experiment: Antiviral activity against HIV-1 harboring protease V82F/[…] double mutant infected in human C8166 cells assessed as inhibition of viral replication by measuring reduction in p24 antigen level incubated for 3 to 7 days by ELISA analysis; type: functional, organism-based; details: Human immunodeficiency virus 1, C8166
[19] = AUC (0 to t) in Sprague-Dawley rat at 10 mg/kg, IG measured upto 24 hrs by LC-MS/MS analysis; type: ADME, organism-based; parameters: dose 10 mg/kg, time < 24 hrs, route ig; details: in vivo, po
[20] = Tmax in Sprague-Dawley rat at 2.5 mg/kg, IG measured upto 24 hrs by LC-MS/MS analysis; type: ADME, organism-based; details: in vivo, po
[21] = system: Human immunodeficiency virus 1; experiment: Antiviral activity against HIV1 KIZ001 infected in human PBMC assessed as inhibition of viral replication by measuring reduction in p24 antigen level incubated for 3 to 7 days by ELISA analysis; type: functional, organism-based; details: Human immunodeficiency virus 1, KIZ001, PBMC
[22] = Tmax in Sprague-Dawley rat at 5 mg/kg, IG measured upto 24 hrs by LC-MS/MS analysis; type: ADME, organism-based; details: in vivo, po
[23] = AUC (0 to t) in male Sprague-Dawley rat at 10 mg/kg, IG measured at 0.5 hrs LC-MS/MS analysis; type: ADME, organism-based; parameters: dose 10 mg/kg, time 0.5 hrs, route ig; details: in vivo, po
[24] = system: HEK-293T; experiment: Cytotoxicity against HEK293T cells assessed as reduction in cell viability upto 100 uM MTT assay; type: toxicity, cell-based; details: human
[25] = system: Human immunodeficiency virus 1; experiment: Antiviral activity against HIV1 TC-1 infected in human PBMC assessed as inhibition of viral replication by measuring reduction in p24 antigen level incubated for 3 to 7 days by ELISA analysis; type: functional, organism-based; details: Human immunodeficiency virus 1, TC-1, PBMC
[26] = AUC (0 to t) in male Sprague-Dawley rat at 100 mg/kg, IG measured at 0.5 hrs LC-MS/MS analysis; type: ADME, organism-based; parameters: dose 100 mg/kg, time 0.5 hrs, route ig; details: in vivo, po
[27] = AUC (0 to t) in female Sprague-Dawley rat at 30 mg/kg, IG measured at 24 hrs LC-MS/MS analysis; type: ADME, organism-based; parameters: dose 30 mg/kg, time 24 hrs, route ig; details: in vivo, po
[28] = Acute toxicity in Sprague-Dawley rat assessed as effect on lung damage at 500 to 2000 mg/kg, IG measured on day 15; type: organism-based; details: in vivo, po, 360 h, dose 500-2000 mg/kg, time 15 day
[29] = AUC (0 to t) in female Sprague-Dawley rat at 10 mg/kg, IG measured at 0.5 hrs LC-MS/MS analysis; type: ADME, organism-based; parameters: time 0.5 hrs, dose 10 mg/kg, route ig; details: in vivo, po
[30] = Acute toxicity in Sprague-Dawley rat assessed as effect on heart damage at 500 to 2000 mg/kg, IG measured on day 15; type: organism-based; details: in vivo, po, 360 h, dose 500-2000 mg/kg, time 15 day
[31] = system: Human immunodeficiency virus 1; experiment: Antiviral activity against HIV1 NL4-3 infected in human C8166 cells assessed as inhibition of viral replication by measuring reduction in p24 antigen level incubated for 3 to 7 days by ELISA analysis; type: functional, organism-based; details: Human immunodeficiency virus 1, NL4-3, C8166

C#C[C@]1(CO)O[C@@H](n2cnc3c(N)nc(F)nc32)[C@@H](F)[C@@H]1O showed an EC50 [1] of 3.51 nM, a CL/F [2] of 0.984 L/h/kg and an AUC(0-t) at 24 h [3] of 8.15 µg·h/mL. The AUC(0-t) at 24 h [4] was 82.5 µg·h/mL, the bioavailability [5] was 76.3% and the Drug metabolism [6] was “Metabolite_Detected”. For the same compound, the Activity [7] was “Non-Toxic”, the half-life [8] was 2 h and the AUC(0-t) at 24 h [9] was 3.63 µg·h/mL. It also gave an AUC(0-t) at 24 h [10] of 5.29 µg·h/mL, an EC50 [11] of 14.4 nM and a half-life [12] of 1.8 h. For the same compound, the AUC(0-t) at 0.5 h [13] was 87.4 µg·h/mL, the Cmax [14] was 10.2 µg/mL and the Activity [15] was “Non-Toxic”. For the same compound, the AUC(0-t) at 24 h [16] was 85.8 µg·h/mL, the Activity [17] was “Non-Toxic” and the EC50 [18] was 6.75 nM. The AUC(0-t) at 24 h [19] was 8.66 µg·h/mL, the Tmax [20] was 0.63 h and the EC50 [21] was 1.87 nM. For the same compound, the Tmax [22] was 0.56 h, the AUC(0-t) at 0.5 h [23] was 6.86 µg·h/mL and the Activity [24] was “Non-Toxic”. For the same compound, the EC50 [25] was 6.3 nM, the AUC(0-t) at 0.5 h [26] was 89.3 µg·h/mL and the AUC(0-t) at 24 h [27] was 26.5 µg·h/mL. For the same compound, the Activity [28] was “Non-Toxic”, the AUC(0-t) at 0.5 h [29] was 7.02 µg·h/mL and the Activity [30] was “Non-Toxic”. It also gave an EC50 [31] of 1.18 nM.
